Data published in patent publication US8993483B2, “Combination of active substances with insecticidal properties” (Bayer Intellectual Property GmbH, priority 2003, dated 2015).

Experiments:
Type in all cases: in vivo
[1] = tested on: larvae of the mustard beetle (Phaedon cochleariae); assay: Phaedon cochleariae larvae test (cabbage leaf dip, kill rate); conditions: single active compound
Text: (§1) The expected action for a given combination of two active compounds can be calculated as follows, according to S. R. Colby, Weeds 15 (1967), 20-22:
(§2) • X is the kill rate, expressed as a percentage of the untreated control, when employing active compound A at an application rate of m g/ha or in a concentration of m ppm, • Y is the kill rate, expressed as a percentage of the untreated control, when employing active compound B at an application rate of n g/ha or in a concentration of n ppm and • E is the kill rate, expressed as a percentage of the untreated control, when employing active compounds A and B at application rates of m and n g/ha or in a concentration of m and n ppm, then
(§3) If the actual insecticidal kill rate exceeds the calculated value, the action of the combination is superadditive, i.e. a synergistic effect is present. In this case, the actually observed kill rate must exceed the value calculated using the above formula for the expected kill rate (E).
Phaedon cochleariae Larvae Test
(§4) To produce a suitable preparation of active compound, 1 part by weight of active compound is mixed with the stated amounts of solvent and emulsifier, and the concentrate is diluted with emulsifier-containing water to the desired concentration. […]
(§5) After the desired period of time, the kill in % is determined. […] The kill rates determined are calculated using Colby's formula (see page 43).

[2] = tested on: caterpillars of the cotton boll worm (Heliothis armigera); assay: Heliothis armigera test (cabbage leaf dip, kill rate); conditions: single active compound
Text: as §1, §2, §3
(§6) To produce a suitable preparation of active compound, 1 part by weight of active compound is mixed with the stated amounts of solvent and emulsifier, and the concentrate is diluted with emulsifier-containing water to the desired concentration.
Cabbage leaves (Brassica oleracea) are treated by being dipped into the preparation of active compound of the desired concentration and are populated with caterpillars of the cotton boll worm (Heliothis armigera) while the leaves are still moist.
(§7) After the desired period of time, the kill in % is determined. 100% means that all caterpillars have been killed; 0% means that none of the caterpillars have been killed. The kill rates determined are calculated using Colby's formula (see page 43).

[3] = tested on: caterpillars of the diamond back moth (Plutella xylostella, normally sensitive strain); assay: Plutella xylostella test (normally sensitive strain; cabbage leaf dip, kill rate); conditions: single active compound
Text: as §1, §2, §3
Plutella xylostella Test (Normally Sensitive Strain)
as §6
Cabbage leaves (Brassica oleracea) are treated by being dipped into the preparation of active compound of the desired concentration and are populated with larvae of caterpillars of the diamond back moth (Plutella xylostella, normally sensitive strain) while the leaves are still moist.
After the desired period of time, the kill in % is determined. 100% means that all caterpillars have been killed; 0% means that none of the caterpillars have been killed. The kill rates determined are calculated using Colby's formula (see sheet 1).

[4] = tested on: green peach aphid (Myzus persicae); assay: Myzus persicae test (infested cabbage leaf dip, kill rate); conditions: single active compound, 0.8 ppm
Text: as §1, §2, §3, §4, §5

[5] = tested on: caterpillars of the armyworm (Spodoptera frugiperda); assay: Spodoptera frugiperda test (cabbage leaf dip, kill rate); conditions: single active compound
Text: as §1, §2, §3
Spodoptera frugiperda Test
as §6
Cabbage leaves (Brassica oleracea) are treated by being dipped into the preparation of active compound of the desired concentration and are populated with caterpillars of the armyworm (Spodoptera frugiperda) while the leaves are still moist.
as §7

Structure (SMILES) | Kill rate in % after 6 d, found ([1]; 0.0064 ppm) [%] | Kill rate in % after 6 d, found ([2]; 0.0064 ppm) [%] | Kill rate in % after 6 d, found ([3]; 0.0064 ppm) [%] | Kill rate in % after 6 d, found [4] [%] | Kill rate in % after 6 d, found ([5]; 0.0064 ppm) [%] | Kill rate in % after 6 d, found ([1]; 4 ppm) [%] | Kill rate in % after 6 d, found ([2]; 4 ppm) [%] | Kill rate in % after 6 d, found ([3]; 4 ppm) [%] | Kill rate in % after 6 d, found ([5]; 4 ppm) [%]
Cc1cc(Cl)cc(C(=O)NC(C)C)c1NC(=O)c1cc(C(F)(F)F)nn1-c1ncccc1Cl [II-1-9] | 0 | 0 | 20 | 0 | 0 |  |  |  | 
O=[N+]([O-])/N=C1\NCCN1Cc1ccc(Cl)nc1 [Ia, imidacloprid] |  |  |  |  |  | 20 | 0 | 0 | 0
CN/C(=N\[N+](=O)[O-])NCc1cnc(Cl)s1 [Im, clothianidin] |  |  |  | 30 |  |  | 40 | 0 | 
